# Tests used:
# morningglory = assay: Test B pre/postemergence morningglory; assay type: in vivo, Ipomoea hederacea
# Summary of the method: (§1)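 Test chemicals in a non-phytotoxic solvent mixture with surfactant were sprayed preemergence onto planted seeds and postemergence onto plants 2 to 18 cm tall (1- to 4-leaf stage). After twelve to sixteen days in a greenhouse, injury was visually rated against untreated controls from 0 (no effect) to 10 (complete control).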
# rape = assay: Test B pre/postemergence rape; assay type: in vivo, Brassica napus
# Summary of the method: as §1
# winter wheat [1] = assay: Test E winter wheat; assay type: in vivo, Triticum aestivum; settings: Postemergence, 0 to 100 scale
# Method: […] All plant species were grown using normal greenhouse practices. Crop and weed species include annual bluegrass (Poa annua), blackgrass (Alopecurus myosuroides), black nightshade (Solanum nigra), chickweed (Stellaria media), common poppy (Papaver rhoeas), deadnettle (Lamium amplexicaule), downy brome (Bromus tectorum), field violet (Viola arvensis), galium (Galium aparine), green foxtail (Setaria viridis), Italian ryegrass (Lolium multiflorum), jointed goatgrass (Aegilops cylindrica), kochia (Kochia scoparia), lambsquarters (Chenopodium album), littleseed canarygrass (Phalaris minor), rape (Brassica napus), redroot pigweed (Amaranthus retroflexus), Russian thistle (Salsola kali), scentless chamomile (Matricaria inodora), spring barley (Hordeum vulgare), sugar beet (Beta vulgaris), sunflower (Helianthus annuus), ivyleaf speedwell (Veronica hederaefolia), spring wheat (Triticum aestivum), winter wheat (Triticum aestivum), wild buckwheat (Polygonum convolvulus), wild mustard (Sinapis arvensis), wild oat (Avena fatua), windgrass (Apera spica-venti) and winter barley (Hordeum vulgare).
# Treated plants and untreated controls were maintained in a greenhouse for approximately 21 to 28 days, after which all treated plants were compared to untreated controls and visually evaluated. […] A dash response (-) means no test result.
# blackgrass = assay: Test E blackgrass; assay type: in vivo, Alopecurus myosuroides; settings: Preemergence; for Plant response rating, Blackgrass: 0 to 100 scale where 0 is no effect and 100 is complete control
# green foxtail = assay: Test E green foxtail; assay type: in vivo, Setaria viridis; settings: Preemergence
# Italian ryegrass = assay: Test E Italian ryegrass; assay type: in vivo, Lolium multiflorum; settings: Preemergence; for Plant response rating, I. Ryegrass: 0 to 100 scale where 0 is no effect and 100 is complete control
# winter wheat [2] = assay: Test E winter wheat; assay type: in vivo, Triticum aestivum; settings: Preemergence; for Plant response rating, Wheat (winter): 0 to 100 scale where 0 is no effect and 100 is complete control
# wild oat = assay: Test E wild oat; assay type: in vivo, Avena fatua; settings: Preemergence; for Plant response rating, Wild oat: 0 to 100 scale where 0 is no effect and 100 is complete control
# winter barley = assay: Test E winter barley; assay type: in vivo, Hordeum vulgare; settings: Preemergence; for Plant response rating, Barley (winter): 0 to 100 scale where 0 is no effect and 100 is complete control
# smallflower flatsedge = assay: Test B flood test smallflower flatsedge; assay type: in vivo, Cyperus difformis
# Summary of the method: (§2)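 Read-out is a visual response score from 0 (no effect) to 10 (complete control), assigned by comparison with untreated controls. Treatment was applied at the 2-leaf stage, and plants stayed in the greenhouse for twelve to sixteen days before scoring.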
# bamyardgrass = assay: Test B flood test barnyardgrass; assay type: in vivo, Echinochloa crus-galli
# Summary of the method: as §2
# [3] = Postemergence, Rate 125 g/ha, scale of 0 to 10 where 0 is no effect and 10 is complete control
# [4] = Preemergence, Rate 62 g/ha, scale of 0 to 10 where 0 is no effect and 10 is complete control
# [5] = Preemergence, Rate 125 g/ha, 0 is no effect, 10 is complete control
# [6] = Preemergence, Rate 250 g/ha, scale 0 to 10, 0 is no effect, 10 is complete control
# [7] = Preemergence, Rate 500 g/ha, scale 0 to 10 (0 no effect, 10 complete control)
# [8] = Rate 62 g/ha, Postemergence, scale of 0 to 10 where 0 is no effect and 10 is complete control
# [9] = Rate 250 g/ha, Postemergence, scale 0 to 10, 0 is no effect, 10 is complete control
# [10] = Rate 500 g/ha, Postemergence, scale 0 to 10
# [11] = Postemergence, Rate 62 g/ha, scale 0 to 10, 0 is no effect, 10 is complete control
# [12] = Postemergence, Rate 250 g/ha, scale of 0 to 10, 0 is no effect, 10 is complete control
# [13] = Postemergence, Rate 500 g/ha, scale of 0 to 10 where 0 is no effect and 10 is complete control
# [14] = Preemergence, Rate 62 g/ha, scale 0 to 10 (0 no effect, 10 complete control)
# [15] = Preemergence, Rate 125 g/ha, scale of 0 to 10 where 0 is no effect and 10 is complete control
# [16] = Preemergence, Rate 250 g/ha, scale 0 to 10 (0 no effect, 10 complete control)
# [17] = Preemergence, Rate 500 g/ha, scale of 0 to 10 where 0 is no effect and 10 is complete control
# [18] = Rate 62 g/ha, flood test species, Pre-emergence, visual evaluation after twelve to sixteen days
# [19] = Rate 125 g/ha, under heading Pre-emergence, flood test species, visual evaluation after twelve to sixteen days
# [20] = Rate 250 g/ha, Pre-emergence (flood test species), scale 0 to 10, 0 is no effect, 10 is complete control
# [21] = Rate 500 g/ha, Pre-emergence section of Table B, 0 to 10 scale (0 no effect, 10 complete control)
structure (smiles),measurement,setting,value
CC(C)N(C(=O)n1oc(=O)n([C@@H](C)c2ccccc2)c1=O)c1ccccc1 [Compound 173],Morningglory plant response rating,morningglory; [3],10
same,Morningglory plant response rating,morningglory; [4],0
same,Morningglory plant response rating (0 to 10 scale),morningglory; [5],0
same,Morningglory plant response rating,morningglory; [6],0
same,Morningglory plant response rating,morningglory; [7],0
same,Morningglory plant response rating,morningglory; [8],7
same,"Plant response rating, Morningglory",morningglory; [9],10
same,Morningglory plant response rating,morningglory; [10],10
same,Rape plant response rating,rape; [3],0
same,Rape plant response rating,rape; [4],0
same,Rape plant response rating (0 to 10 scale),rape; [5],0
same,Rape plant response rating,rape; [6],0
same,Rape plant response rating,rape; [7],0
same,Rape plant response rating,rape; [8],0
same,"Plant response rating, Rape",rape; [9],0
same,Rape plant response rating,rape; [10],0
same,"Plant response rating, Wheat (winter)","winter wheat [1]; Rate 1000 g/ha, 0 is no effect and 100 is complete control",60
same,"Plant response rating, Wheat (winter)","winter wheat [1]; Rate 500 g/ha, 0 is no effect, 100 is complete control",40
same,Blackgrass plant response rating (0 to 100 scale),blackgrass; Rate 250 g/ha,50
same,"Plant response rating, Blackgrass",blackgrass; Rate 500 g/ha,70
same,"Plant response rating, Blackgrass",blackgrass; Rate 1000 g/ha,98
same,Green foxtail plant response rating (0 to 100 scale),green foxtail; Rate 250 g/ha,85
same,"Plant response rating, Green foxtail","green foxtail; Rate 1000 g/ha, 0 to 100 scale where 0 is no effect and 100 is complete control",100
same,I. Ryegrass plant response rating (0 to 100 scale),Italian ryegrass; Rate 250 g/ha,35
same,"Plant response rating, I. Ryegrass",Italian ryegrass; Rate 500 g/ha,45
same,"Plant response rating, I. Ryegrass",Italian ryegrass; Rate 1000 g/ha,98
same,Wheat (winter) plant response rating (0 to 100 scale),winter wheat [2]; Rate 250 g/ha,20
same,"Plant response rating, Wheat (winter)",winter wheat [2]; Rate 500 g/ha,30
same,"Plant response rating, Wheat (winter)",winter wheat [2]; Rate 1000 g/ha,50
same,Wild oat plant response rating (0 to 100 scale),wild oat; Rate 250 g/ha,50
same,"Plant response rating, Wild oat",wild oat; Rate 500 g/ha,45
same,"Plant response rating, Wild oat",wild oat; Rate 1000 g/ha,50
same,Barley (winter) plant response rating (0 to 100 scale),winter barley; Rate 250 g/ha,30
same,"Plant response rating, Barley (winter)",winter barley; Rate 500 g/ha,40
same,"Plant response rating, Barley (winter)",winter barley; Rate 1000 g/ha,40
CCOC(Cn1c(=O)on(C(=O)N(c2ccc(F)cc2)C(C)C)c1=O)OCC [Compound 629],"Plant response rating, Morningglory",morningglory; [11],2
same,"Plant response rating, Morningglory",morningglory; [3],2
same,Morningglory plant response rating,morningglory; [12],3
same,"Plant response rating, Morningglory",morningglory; [13],3
same,Morningglory plant response rating,morningglory; [14],0
same,Morningglory plant response rating,morningglory; [15],0
same,"Plant response rating, Morningglory",morningglory; [16],0
same,"Plant response rating, Morningglory",morningglory; [17],4
same,"Plant response rating, Rape",rape; [11],0
same,"Plant response rating, Rape",rape; [3],0
same,Rape plant response rating,rape; [12],0
same,"Plant response rating, Rape",rape; [13],3
same,Rape plant response rating,rape; [14],0
same,Rape plant response rating,rape; [15],0
same,"Plant response rating, Rape",rape; [16],4
same,"Plant response rating, Rape",rape; [17],9
same,"Plant response rating, S. Flatsedge (0 to 10 scale, 0 is no effect, 10 is complete control)",smallflower flatsedge; [18],0
same,"S. Flatsedge plant response rating (0 to 10 scale, 0 is no effect, 10 is complete control)",smallflower flatsedge; [19],0
same,S. Flatsedge plant response rating,smallflower flatsedge; [20],0
same,S. Flatsedge plant response rating,smallflower flatsedge; [21],0
same,"Plant response rating, Barnyardgrass (0 to 10 scale, 0 is no effect, 10 is complete control)",bamyardgrass; [18],0
same,"Barnyardgrass plant response rating (0 to 10 scale, 0 is no effect, 10 is complete control)",bamyardgrass; [19],0
same,Barnyardgrass plant response rating,bamyardgrass; [20],0
same,Barnyardgrass plant response rating,bamyardgrass; [21],0

# Reference: patent US6737383B1, “Herbicidal oxadiazolidines” (priority 1999, dated 2004)
